{"source": "patent US9469804B2", "about": "“Foaming composition with wettability modifying and corrosion inhibitory properties for high temperature and ultra-high salinity” (INSTITUTO MEXICANO DEL PETROLEO, priority 2012, dated 2016)", "key": {"[1]": {"assay": "Phase stability evaluation in brines with ultra-high salinity (turbidity)", "assay_type": "physicochemical", "settings": "0.2% by weight, room temperature, pass limit 30 NTU", "method": "A phase stability study was carried out for the supramolecular complexes object of the present invention, described in Examples 19, 20 and 21 and whose basic structural formula is indicated in (36).\nAll the products were assessed at concentration of 0.2% by weight, dissolved in different waters with high salinity and concentrations of divalent ions, through the measurement of turbidity in NTU (Nephelometric Turbidity Units). This value indicates how turbid or clear a solution/chemical product is and the higher the value, the more turbid the solution is.\nThe measurement is based on applying the nephelometric technique by using a photometer. The standard method is based on the comparison of the amount of light dispersed by the colloidal particles present in a sample of water with the intensity of the light emerging across the same sample.\nIt is worth mentioning that in order to pass this test, a value 30 NTU should not be exceeded."}, "[2]": {"assay": "Foaming test at atmospheric pressure (foam stability)", "assay_type": "physicochemical", "settings": "brine 1, 70°C, 0.2% by weight, nitrogen"}}}
{"substance": "coco-amido-propyl-hydroxysultaine [Coco amido-propyl hydroxysultaine]", "values": [{"measurement": "TURBIDITY", "setting": "[1]; BRINE 1 (salinity as NaCl 32803.9, hardness 6420 mg/L)", "value": 1.09, "unit": "NTU"}, {"measurement": "TURBIDITY", "setting": "[1]; BRINE 2 (salinity as NaCl 152974.9, hardness 35200 mg/L)", "value": 1.68, "unit": "NTU"}, {"measurement": "TURBIDITY", "setting": "[1]; BRINE 3 (salinity as NaCl 253859.1, hardness 87700 mg/L)", "value": 3.9, "unit": "NTU"}, {"measurement": "time in which the minimum foam stability of 30% is reached", "setting": "[2]", "value": 60, "unit": "min"}]}
